In ChEMBL document CHEMBL1201862, “PubChem BioAssay data set” (2004):
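Exposure lasted 48 hours, with cells grown in 96-well plates and compounds tested at five concentrations. The concentration for 50% growth inhibition is given as GI50.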 Active and inactive are the calls of the source. Rule as the data show it: active = GI50 up to about 1.1 µM and inactive = higher.

Key:
Assay in all cases: NCI-60 cell line screen, 48 h
[1] = system: OVCAR-5
[2] = system: OVCAR-8
[3] = system: SK-MEL-5
[4] = system: SN12C
[5] = system: PC-3
[6] = system: MDA-N
[7] = system: MCF7
[8] = system: HOP-62
[9] = system: BT-549
[10] = system: IGROV-1
[11] = system: SF-295
[12] = system: HCC 2998
[13] = system: MDA-MB-231
[14] = system: T47D
[15] = system: UACC-62
[16] = system: NCI/ADR-RES
[17] = system: SK-MEL-2
[18] = system: SK-OV-3
[19] = system: DU-145
[20] = system: MOLT-4
[21] = system: UO-31
[22] = system: SF-539
[23] = system: EKVX
[24] = system: NCI-H522
[25] = system: SK-MEL-28
[26] = system: SNB-19
[27] = system: SNB-75
[28] = system: ACHN
[29] = system: NCI-H460
[30] = system: RXF 393
[31] = system: A549
[32] = system: UACC-257
[33] = system: 786-0
[34] = system: HCT-15
[35] = system: U-251
[36] = system: SR
[37] = system: MDA-MB-435
[38] = system: CAKI-1
[39] = system: TK-10
[40] = system: OVCAR-4
[41] = system: K562
[42] = system: OVCAR-3
[43] = system: M14
[44] = system: SW-620
[45] = system: COLO 205
[46] = system: RPMI-8226
[47] = system: HCT-116
[48] = system: LOX IMVI
[49] = system: SF-268
[50] = system: KM12
[51] = system: NCI-H23
[52] = system: CCRF-CEM
[53] = system: HT-29
[54] = system: Hs-578T
[55] = system: Malme-3M
[56] = system: A498
[57] = system: NCI-H226
[58] = system: HOP-92
[59] = system: HL-60

## Clc1sc(Cl)c2c1[C@H](Br)C[C@@H]2Cl
[1]
  GI50: > 100 µM (inactive)
[2]
  GI50: 27.6 µM (inactive)
[3]
  GI50: 46.9 µM (inactive)
[4]
  GI50: 29.5 µM (inactive)
[5]
  GI50: 40.3 µM (inactive)
[6]
  GI50: 41.7 µM (inactive)
[7]
  GI50: 12.5 µM (inactive)
[8]
  GI50: 83.9 µM (inactive)
[9]
  GI50: 18.2 µM (inactive)
[10]
  GI50: 13.2 µM (inactive)
[11]
  GI50: 99.5 µM (inactive)
[12]
  GI50: 37.8 µM (inactive)
[13]
  GI50: 21.4 µM (inactive)
[14]
  GI50: 36.4 µM (inactive)
[15]
  GI50: 20.9 µM (inactive)
[16]
  GI50: 17.7 µM (inactive)
[17]
  GI50: 59.8 µM (inactive)
[18]
  GI50: > 100 µM (inactive)
[19]
  GI50: 33.7 µM (inactive)
[20]
  GI50: 19.1 µM (inactive)
[21]
  GI50: 18.3 µM (inactive)
[22]
  GI50: 15.8 µM (inactive)
[23]
  GI50: 35.9 µM (inactive)
[24]
  GI50: 16.9 µM (inactive)
[25]
  GI50: 29 µM (inactive)
[26]
  GI50: 57.7 µM (inactive)
[27]
  GI50: > 100 µM (inactive)
[28]
  GI50: 18.8 µM (inactive)
[29]
  GI50: 41.6 µM (inactive)
[30]
  GI50: 26 µM (inactive)
[31]
  GI50: 32.9 µM (inactive)
[32]
  GI50: 29.4 µM (inactive)
[33]
  GI50: 32.9 µM (inactive)
[34]
  GI50: 17.1 µM
[35]
  GI50: 27.7 µM (inactive)
[36]
  GI50: 15.7 µM (inactive)
[37]
  GI50: 18.4 µM (inactive)
[38]
  GI50: 26.2 µM (inactive)
[39]
  GI50: 33.7 µM (inactive)
[40]
  GI50: 55.8 µM (inactive)
[41]
  GI50: 38.5 µM (inactive)
[42]
  GI50: 23.8 µM (inactive)
[43]
  GI50: 20.3 µM (inactive)
[44]
  GI50: 21.6 µM (inactive)
[45]
  GI50: 20.1 µM (inactive)
[46]
  GI50: 30.2 µM (inactive)
[47]
  GI50: 27.9 µM (inactive)
[48]
  GI50: 18.2 µM (inactive)
[49]
  GI50: 23 µM (inactive)
[50]
  GI50: 39.8 µM (inactive)
[51]
  GI50: 17.8 µM (inactive)
[52]
  GI50: 17.5 µM (inactive)
[53]
  GI50: 35 µM (inactive)
[54]
  GI50: 22.8 µM (inactive)
[55]
  GI50: 21.9 µM (inactive)

## NS(=O)(=O)c1nnc(NSc2ccc([N+](=O)[O-])cc2)s1
[1]
  GI50: > 100 µM (inactive)
[2]
  GI50: > 100 µM (inactive)
[3]
  GI50: > 100 µM (inactive)
[4]
  GI50: > 100 µM (inactive)
[6]
  GI50: > 100 µM (inactive)
[7]
  GI50: > 100 µM (inactive)
[8]
  GI50: > 100 µM (inactive)
[9]
  GI50: > 100 µM (inactive)
[11]
  GI50: > 100 µM (inactive)
[12]
  GI50: > 100 µM (inactive)
[13]
  GI50: > 100 µM (inactive)
[14]
  GI50: > 100 µM (inactive)
[15]
  GI50: > 100 µM (inactive)
[16]
  GI50: > 100 µM (inactive)
[17]
  GI50: > 100 µM (inactive)
[18]
  GI50: > 100 µM (inactive)
[19]
  GI50: > 100 µM (inactive)
[20]
  GI50: 40.8 µM (inactive)
[21]
  GI50: > 100 µM (inactive)
[23]
  GI50: > 100 µM (inactive)
[24]
  GI50: 23.7 µM (inactive)
[25]
  GI50: > 100 µM (inactive)
[26]
  GI50: > 100 µM (inactive)
[28]
  GI50: > 100 µM (inactive)
[29]
  GI50: > 100 µM (inactive)
[30]
  GI50: > 100 µM (inactive)
[56]
  GI50: > 100 µM (inactive)
[31]
  GI50: > 100 µM (inactive)
[32]
  GI50: > 100 µM (inactive)
[33]
  GI50: > 100 µM (inactive)
[34]
  GI50: > 100 µM
[35]
  GI50: > 100 µM (inactive)
[36]
  GI50: 59.6 µM (inactive)
[37]
  GI50: > 100 µM (inactive)
[38]
  GI50: 92.3 µM (inactive)
[39]
  GI50: > 100 µM (inactive)
[40]
  GI50: 48.9 µM (inactive)
[41]
  GI50: > 100 µM (inactive)
[42]
  GI50: > 100 µM (inactive)
[43]
  GI50: > 100 µM (inactive)
[57]
  GI50: > 100 µM (inactive)
[44]
  GI50: > 100 µM (inactive)
[45]
  GI50: > 100 µM (inactive)
[46]
  GI50: 49.7 µM (inactive)
[47]
  GI50: > 100 µM (inactive)
[48]
  GI50: > 100 µM (inactive)
[49]
  GI50: > 100 µM (inactive)
[50]
  GI50: > 10 µM (inactive)
[51]
  GI50: > 100 µM (inactive)
[54]
  GI50: > 100 µM (inactive)
[55]
  GI50: > 100 µM (inactive)
[58]
  GI50: > 100 µM (inactive)

## Cc1c(Cc2ccccc2)n(COCCCO)c(=O)[nH]c1=O
[1]
  GI50: > 100 µM (inactive)
[2]
  GI50: > 100 µM (inactive)
[3]
  GI50: > 100 µM (inactive)
[4]
  GI50: > 100 µM (inactive)
[5]
  GI50: > 100 µM (inactive)
[6]
  GI50: > 100 µM (inactive)
[7]
  GI50: > 100 µM (inactive)
[8]
  GI50: > 100 µM (inactive)
[9]
  GI50: > 100 µM (inactive)
[10]
  GI50: > 100 µM (inactive)
[11]
  GI50: > 100 µM (inactive)
[12]
  GI50: > 100 µM (inactive)
[13]
  GI50: > 100 µM (inactive)
[14]
  GI50: > 100 µM (inactive)
[15]
  GI50: > 100 µM (inactive)
[16]
  GI50: > 100 µM (inactive)
[17]
  GI50: > 100 µM (inactive)
[18]
  GI50: > 100 µM (inactive)
[19]
  GI50: > 100 µM (inactive)
[20]
  GI50: > 100 µM (inactive)
[21]
  GI50: > 100 µM (inactive)
[22]
  GI50: > 100 µM (inactive)
[23]
  GI50: > 100 µM (inactive)
[24]
  GI50: > 100 µM (inactive)
[25]
  GI50: > 100 µM (inactive)
[26]
  GI50: > 100 µM (inactive)
[27]
  GI50: > 100 µM (inactive)
[28]
  GI50: > 100 µM (inactive)
[29]
  GI50: > 100 µM (inactive)
[30]
  GI50: > 100 µM (inactive)
[56]
  GI50: > 100 µM (inactive)
[31]
  GI50: > 100 µM (inactive)
[32]
  GI50: > 100 µM (inactive)
[33]
  GI50: > 100 µM (inactive)
[34]
  GI50: > 100 µM
[35]
  GI50: > 100 µM (inactive)
[37]
  GI50: > 100 µM (inactive)
[38]
  GI50: > 100 µM (inactive)
[39]
  GI50: > 100 µM (inactive)
[40]
  GI50: > 100 µM (inactive)
[41]
  GI50: > 100 µM (inactive)
[42]
  GI50: > 100 µM (inactive)
[43]
  GI50: > 100 µM (inactive)
[57]
  GI50: > 100 µM (inactive)
[44]
  GI50: > 100 µM (inactive)
[45]
  GI50: > 100 µM (inactive)
[46]
  GI50: > 100 µM (inactive)
[47]
  GI50: > 100 µM (inactive)
[48]
  GI50: > 100 µM (inactive)
[49]
  GI50: > 100 µM (inactive)
[50]
  GI50: > 100 µM (inactive)
[51]
  GI50: > 100 µM (inactive)
[52]
  GI50: > 100 µM (inactive)
[53]
  GI50: > 100 µM (inactive)
[54]
  GI50: > 100 µM (inactive)
[55]
  GI50: > 100 µM (inactive)
[58]
  GI50: > 100 µM (inactive)

## N=c1oc2ccccc2cc1C(=O)Nc1ccccn1
[1]
  GI50: > 100 µM (inactive)
[2]
  GI50: > 100 µM (inactive)
[3]
  GI50: > 100 µM (inactive)
[4]
  GI50: > 100 µM (inactive)
[6]
  GI50: > 100 µM (inactive)
[8]
  GI50: 63 µM (inactive)
[9]
  GI50: > 100 µM (inactive)
[10]
  GI50: 51.9 µM (inactive)
[12]
  GI50: > 100 µM (inactive)
[13]
  GI50: > 100 µM (inactive)
[14]
  GI50: 43.7 µM (inactive)
[15]
  GI50: 58.6 µM (inactive)
[16]
  GI50: > 100 µM (inactive)
[17]
  GI50: 29.4 µM (inactive)
[18]
  GI50: > 100 µM (inactive)
[19]
  GI50: > 100 µM (inactive)
[20]
  GI50: 66.4 µM (inactive)
[22]
  GI50: 65.6 µM (inactive)
[23]
  GI50: 33.2 µM (inactive)
[25]
  GI50: > 100 µM (inactive)
[26]
  GI50: > 100 µM (inactive)
[27]
  GI50: > 100 µM (inactive)
[28]
  GI50: 53.1 µM (inactive)
[29]
  GI50: 95.9 µM (inactive)
[30]
  GI50: > 100 µM (inactive)
[56]
  GI50: > 100 µM (inactive)
[31]
  GI50: > 100 µM (inactive)
[32]
  GI50: > 100 µM (inactive)
[33]
  GI50: 37.8 µM (inactive)
[34]
  GI50: 75 µM
[35]
  GI50: > 100 µM (inactive)
[36]
  GI50: 86.7 µM (inactive)
[37]
  GI50: > 100 µM (inactive)
[38]
  GI50: 45.4 µM (inactive)
[40]
  GI50: > 100 µM (inactive)
[59]
  GI50: > 100 µM (inactive)
[41]
  GI50: > 100 µM (inactive)
[42]
  GI50: > 100 µM (inactive)
[43]
  GI50: > 100 µM (inactive)
[57]
  GI50: > 100 µM (inactive)
[44]
  GI50: > 100 µM (inactive)
[45]
  GI50: > 100 µM (inactive)
[46]
  GI50: > 100 µM (inactive)
[47]
  GI50: 51.9 µM (inactive)
[48]
  GI50: 54 µM (inactive)
[49]
  GI50: > 100 µM (inactive)
[50]
  GI50: 56.5 µM (inactive)
[51]
  GI50: > 100 µM (inactive)
[52]
  GI50: 44.8 µM (inactive)
[53]
  GI50: > 100 µM (inactive)
[54]
  GI50: 75 µM (inactive)
[55]
  GI50: 14 µM (inactive)
[58]
  GI50: > 100 µM (inactive)
